Earlier results on one compound are cited in article PMC9263996 (iScience, 2022).

For one series, the system named is SaveOBP3. As to conditions: fluorescence-binding assays; ref Vandermoten et al., 2011; cited from earlier work.
The test system of the next series is EbalOBP3. As to conditions: fluorescence-binding assays; ref Vandermoten et al., 2011; cited from earlier work.

As for `C=CC(=C)CC/C=C(\C)CCC=C(C)C` [(E)-β-farnesene], the “affinity with SaveOBP3” value in the series with SaveOBP3 was “high affinity”. The “affinity with EbalOBP3” value with EbalOBP3 is “high affinity”.
